Results taken from patent US20070015803A1, “Methods for treating diseases through interruption of protein maturation, compounds that inhibit the function of molecular chaperones such as protein disulfide isomerases or interfere with glycosylation, pharmaceutical compositions comprising them, and screening methods for identifying therapeutic …” (Romark Laboratories L.C., priority 2005, published 2007).

Key:
Neospora caninum [1] = experiment: In vitro efficacy against Neospora caninum (tizoxanide); type: cell-based; settings: intracellular protozoan
Description: (§1) Cell culture studies of the mechanism of action by which tizoxanide suppresses rotavirus infection have been carried out. […] Studies have shown that tizoxanide binds to PDI-4 of Giardia intestinalis (an extra-cellular protozoan) and that tizoxanide is effective in vitro against Giardia intestinalis. • b. Studies have shown that tizoxanide binds to PDI isolated from Neospora caninum (intracellular protozoan) and is effective in vitro against this organism. • c. […] Studies in humans have shown that adults with chronic hepatitis B or with chronic hepatitis C can be effectively treated by administering nitazoxanide 500 mg (in tablet form) twice daily for 24 weeks with the patients having undetectable virus DNA or RNA in their serum at the end of treatment.

Giardia intestinalis = experiment: In vitro efficacy against Giardia intestinalis; type: cell-based; settings: extra-cellular protozoan
Description: as §1

rotavirus [2] = experiment: Cell culture studies of the mechanism by which tizoxanide suppresses rotavirus infection; type: cell-based
Description: as §1

[3] = test system: PDI-4 of Giardia intestinalis; experiment: Binding to PDI-4 of Giardia intestinalis
Description: as §1

[4] = biological target: T1, PDI isolated from Neospora caninum (Neospora caninum, UniProt F0VAI6); experiment: Binding to PDI isolated from Neospora caninum
T1 construct: PDI isolated from Neospora caninum; from tissue; host or cells: Neospora caninum (parasite material)
Description: as §1

[5] = test system: pro-inflammatory cytokines: IL-2, IL-4, IL-5, IL-6, IL-8, IL-10, IL-12 and TNF-alpha; experiment: Secretion of pro-inflammatory cytokines; type: cell-based
Description: as §1

[6] = test system: IL-1β, IL-6 and TNF-alpha; experiment: Cytokine suppressing ability in cell culture; type: cell-based; settings: in particular IL-1β
[7] = Human subject with elevated liver enzymes due to autoimmune hepatitis; type: in vivo; settings: 500 mg twice daily orally, 10-day course
Description: as §1

[8] = test system: human colon cancer cell lines; experiment: Replication of human colon cancer cell lines and other cell lines; type: cell-based; settings: human colon cancer cell lines and a variety of other cell lines
Description: as §1

rotavirus [9] = experiment: Children with severe rotavirus disease, versus placebo; type: in vivo, human; settings: 7.5 mg/kg twice daily oral, compared to placebo
chronic hepatitis C = experiment: Adults with chronic hepatitis C, serum virus RNA; type: in vivo, human; settings: 500 mg tablet twice daily for 24 weeks
Description: as §1

chronic hepatitis B = experiment: Adults with chronic hepatitis B, serum virus DNA; type: in vivo, human; settings: 500 mg tablet twice daily for 24 weeks
Description: as §1

Neospora caninum [10] = experiment: In vitro or cell culture activity against Neospora caninum (compounds 1-13); type: cell-based
Description: (§2) The following compounds numbered 1-13 in the table below have been synthesized and tested in vitro or in cell culture against Neospora caninum (a protozoan), para-influenza virus, sendai virus, influenza A virus, and/or rhinovirus. In addition, applicant notes that compounds 12 and 13 have shown good activity against viruses and Neospora caninum.

[11] = test system: para-influenza virus, sendai virus, influenza A virus, and/or rhinovirus; experiment: In vitro or cell culture activity against viruses; type: cell-based
Description: as §2

T1 sequence (F0VAI6 entry or part of it): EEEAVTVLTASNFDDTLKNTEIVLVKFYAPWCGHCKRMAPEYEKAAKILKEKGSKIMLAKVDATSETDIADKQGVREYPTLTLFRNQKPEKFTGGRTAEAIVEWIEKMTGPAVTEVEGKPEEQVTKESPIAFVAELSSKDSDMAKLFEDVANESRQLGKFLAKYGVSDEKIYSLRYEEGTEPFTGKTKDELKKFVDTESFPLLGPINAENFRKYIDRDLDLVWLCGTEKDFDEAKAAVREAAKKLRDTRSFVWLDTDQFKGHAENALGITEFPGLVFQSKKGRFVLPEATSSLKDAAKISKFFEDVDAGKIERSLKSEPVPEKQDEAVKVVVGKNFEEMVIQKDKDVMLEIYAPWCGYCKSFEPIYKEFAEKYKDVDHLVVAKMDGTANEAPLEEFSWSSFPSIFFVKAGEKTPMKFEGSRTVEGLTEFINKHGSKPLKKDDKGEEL

O=C(Nc1ncc([N+](=O)[O-])s1)c1ccccc1O [tizoxanide]
efficacy in vitro (Neospora caninum [1]): effective | efficacy in vitro (Giardia intestinalis): effective | VP7 maturation to a stage allowing glycosylation (rotavirus [2]): prevented VP7 from reaching a stage of maturation that allowed it to be glycosylated | effect on viral transcription (rotavirus [2]): did not affect | maturation of virus protein (rotavirus [2]): prevent maturation of virus protein | effect on synthesis and/or maturation of VP7 (rotavirus [2]; single protein identified as VP7): selectively affects | binding to PDI-4 [3]: binds | binding to PDI [4]: binds | secretion of pro-inflammatory cytokines [5]: inhibits secretion

CC(=O)Oc1c(C)cccc1C(=O)Nc1ncc(Br)s1 [Compound 3]
suppression of cytokines [6]: showed activity in suppressing cytokines

CC(=O)Oc1ccccc1C(=O)Nc1ncc([N+](=O)[O-])s1 [nitazoxanide]
liver transaminases [7]: reduced liver transaminases to normal levels | replication of cell lines [8]: inhibits the replication | duration of illness (rotavirus [9]): significantly reduces the duration of illness | virus RNA in serum at end of treatment (chronic hepatitis C): undetectable | virus DNA in serum at end of treatment (chronic hepatitis B): undetectable

O=C(Nc1cccc(Cl)c1)c1ccccc1O [Compound 13, N-(3-chlorophenyl)-2-hy-droxybenzamide]
activity against Neospora caninum (Neospora caninum [10]): good activity | activity against viruses [11]: good activity

O=C(Nc1cccc(F)c1)c1ccccc1O [Compound 12, N-(3-fluorophenyl)-2-hy-droxybenzamide]
activity against Neospora caninum (Neospora caninum [10]): good activity | activity against viruses [11]: good activity
